Results published in ChEMBL document CHEMBL1125504, “2-Substituted 1-azabicycloalkanes, a new class of non-opiate antinociceptive agents” (J Med Chem, 1992).
Activity calls are given as the source filed them. No cut-off for these calls is given here.

Tests used:
[1] = target: Serotonin 1 (5-HT1) receptor (Rattus norvegicus) (UniProt P28564+P30940+P19327+P28565); assay: Inhibition constant (1 uM) was measured on 5-hydroxytryptamine 1 receptor/uptake using [3H]- serotonin as radioligand in rat brain cortex.; format: tissue-based
[2] = target: Serotonin 2 (5-HT2) receptor (Rattus norvegicus) (UniProt P30994+P08909+P14842); assay: Inhibitory constant (1 uM) was measured on 5-hydroxytryptamine 2 receptor/uptake using [3H]- ketanserin as radioligand in rat brain cortex.; format: tissue-based
[3] = target: Adrenergic receptor alpha-1 (Rattus norvegicus) (UniProt P15823+P23944+P43140); assay: Inhibitory constant (1 uM) was measured on alpha-1 adrenergic receptor/uptake using [3H]- WB-4101 as radioligand in rat brain cortex.; format: tissue-based
[4] = target: D(2) dopamine receptor (Rattus norvegicus) (UniProt P61169); assay: Inhibitory constant (1 uM) was measured on dopamine receptor D2 using [3H]- spiperone as radioligand in rat brain striatum.; format: tissue-based
[5] = target: GABA-A receptor; anion channel (Rattus norvegicus) (UniProt O09028+P15431+P18506+P18508+P19969+P20236+P23574+P23576+P28471+P28473+P30191+P62813+P63079+P63138+Q91ZM7+Q9ES14); assay: Inhibition of [3H]GABA binding to gamma-aminobutyric-acid A (GABA-A) receptor of rat brain cerebellum at 10 uM; format: tissue-based
[6] = target: Opioid receptor (Rattus norvegicus) (UniProt P33533+P34975+P33535); assay: Inhibitory constant (10 uM) was measured on opioid receptor/uptake using [3H]- naloxone as radioligand in rat whole brain.
[7] = target: Cannabinoid receptor (Rattus norvegicus) (UniProt Q9QZN9+P20272); assay: Inhibitory constant (10 uM) was measured on cannabinoid receptor/uptake using [3H]CP-55940 as radioligand in rat brain cortex.; format: tissue-based
[8] = target: Adrenergic receptor beta (Rattus norvegicus) (UniProt P18090+P10608+P26255); assay: Inhibitory constant (1 uM) was measured on beta adrenergic receptor/uptake using [3H]- dihydroalprenolol as radioligand in rat brain cortex.; format: tissue-based
Mus musculus [9] = species on record: Mus musculus; assay: Antinociceptive activity in mice, determined using abdominal constriction test.; format: functional; settings: Abdomen
Mus musculus [10] = species on record: Mus musculus; assay: Antinociceptive activity using mouse tail flick test; Inactive; format: functional, organism-based
Mus musculus [11] = assay: Antinociceptive activity in mice following i.p. treatment, determined using tail flick test.; format: functional; settings: ip
Mus musculus [12] = assay: Antinociceptive activity (10 mg/Kg) was determined using mouse abdominal constriction test.; format: functional, Abdomen
Mus musculus [13] = assay: Antinociceptive activity (50 mg/Kg) was determined using mouse tail flick test.; format: functional
[14] = target: T1, Adrenergic receptor alpha-2 (Rattus norvegicus, UniProt P22086+P19328+P22909); assay: Inhibitory constant was measured on alpha-2 adrenergic receptor /uptake using [3H]- clonidine as radioligand in rat brain cortex.; format: tissue-based
T1 sequence (P22086 whole entry): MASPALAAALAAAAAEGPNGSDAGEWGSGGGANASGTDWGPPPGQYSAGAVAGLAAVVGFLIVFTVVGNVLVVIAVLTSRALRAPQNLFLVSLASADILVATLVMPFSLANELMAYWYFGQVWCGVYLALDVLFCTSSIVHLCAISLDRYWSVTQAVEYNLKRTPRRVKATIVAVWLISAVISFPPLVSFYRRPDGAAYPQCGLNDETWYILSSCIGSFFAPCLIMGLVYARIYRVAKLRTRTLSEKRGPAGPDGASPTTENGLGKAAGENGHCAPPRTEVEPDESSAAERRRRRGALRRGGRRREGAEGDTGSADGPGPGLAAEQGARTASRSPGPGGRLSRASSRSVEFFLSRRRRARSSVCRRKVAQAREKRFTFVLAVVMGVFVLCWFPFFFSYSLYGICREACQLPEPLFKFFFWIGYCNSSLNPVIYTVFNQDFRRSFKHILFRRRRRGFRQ
T1 sequence (P19328 whole entry): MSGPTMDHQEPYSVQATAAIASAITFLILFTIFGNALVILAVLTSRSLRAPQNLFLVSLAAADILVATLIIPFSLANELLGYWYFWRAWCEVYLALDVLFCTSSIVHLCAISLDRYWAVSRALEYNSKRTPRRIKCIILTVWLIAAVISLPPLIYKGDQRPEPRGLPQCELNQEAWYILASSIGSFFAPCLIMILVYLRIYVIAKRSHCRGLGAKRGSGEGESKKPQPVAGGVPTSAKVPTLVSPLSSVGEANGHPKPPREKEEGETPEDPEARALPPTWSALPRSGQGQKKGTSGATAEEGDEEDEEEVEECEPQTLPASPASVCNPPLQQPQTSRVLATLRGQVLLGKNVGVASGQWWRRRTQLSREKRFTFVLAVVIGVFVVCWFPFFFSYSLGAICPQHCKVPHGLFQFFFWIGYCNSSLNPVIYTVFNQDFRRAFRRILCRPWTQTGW
T1 sequence (P22909 whole entry): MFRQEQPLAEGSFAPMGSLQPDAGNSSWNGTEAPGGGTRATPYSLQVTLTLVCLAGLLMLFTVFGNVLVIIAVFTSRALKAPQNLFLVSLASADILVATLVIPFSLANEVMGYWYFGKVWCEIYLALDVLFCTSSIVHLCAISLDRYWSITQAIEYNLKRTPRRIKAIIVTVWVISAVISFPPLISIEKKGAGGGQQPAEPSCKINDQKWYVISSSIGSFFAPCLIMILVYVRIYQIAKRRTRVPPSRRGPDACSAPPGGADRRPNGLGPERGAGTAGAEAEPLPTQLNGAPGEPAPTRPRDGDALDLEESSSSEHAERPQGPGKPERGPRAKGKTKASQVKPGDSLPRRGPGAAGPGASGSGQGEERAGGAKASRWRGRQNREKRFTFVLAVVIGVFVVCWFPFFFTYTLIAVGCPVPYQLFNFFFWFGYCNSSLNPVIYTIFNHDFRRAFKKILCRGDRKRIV

Mus musculus [15] = assay: Antinociceptive activity (100 mg/Kg) was determined using mouse tail flick test.; format: functional
Mus musculus [16] = species on record: Mus musculus; assay: Antinociceptive activity using mouse abdominal constriction test; inactive; format: functional, organism-based; settings: Abdomen
[17] = target: T1, Adrenergic receptor alpha-2; assay: Inhibitory constant was measured on alpha-2 adrenergic receptor /uptake using [3H] clonidine as radioligand in rat brain cortex; format: tissue-based

Sequence of Cannabinoid receptor (Rattus norvegicus) (P20272 whole entry, looked up): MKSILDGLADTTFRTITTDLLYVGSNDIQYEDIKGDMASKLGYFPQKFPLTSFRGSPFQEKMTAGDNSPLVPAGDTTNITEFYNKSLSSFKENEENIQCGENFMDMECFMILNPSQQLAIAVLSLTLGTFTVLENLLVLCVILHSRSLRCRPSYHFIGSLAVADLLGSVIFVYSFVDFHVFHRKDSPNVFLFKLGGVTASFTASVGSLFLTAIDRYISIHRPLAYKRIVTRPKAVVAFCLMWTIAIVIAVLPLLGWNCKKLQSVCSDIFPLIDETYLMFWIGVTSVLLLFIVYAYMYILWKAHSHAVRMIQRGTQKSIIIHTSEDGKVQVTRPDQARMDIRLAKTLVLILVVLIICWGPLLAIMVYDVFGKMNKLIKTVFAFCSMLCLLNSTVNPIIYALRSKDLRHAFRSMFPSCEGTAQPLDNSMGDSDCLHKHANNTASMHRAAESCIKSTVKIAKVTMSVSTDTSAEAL
Sequence of Cannabinoid receptor (Rattus norvegicus) (Q9QZN9 whole entry, looked up): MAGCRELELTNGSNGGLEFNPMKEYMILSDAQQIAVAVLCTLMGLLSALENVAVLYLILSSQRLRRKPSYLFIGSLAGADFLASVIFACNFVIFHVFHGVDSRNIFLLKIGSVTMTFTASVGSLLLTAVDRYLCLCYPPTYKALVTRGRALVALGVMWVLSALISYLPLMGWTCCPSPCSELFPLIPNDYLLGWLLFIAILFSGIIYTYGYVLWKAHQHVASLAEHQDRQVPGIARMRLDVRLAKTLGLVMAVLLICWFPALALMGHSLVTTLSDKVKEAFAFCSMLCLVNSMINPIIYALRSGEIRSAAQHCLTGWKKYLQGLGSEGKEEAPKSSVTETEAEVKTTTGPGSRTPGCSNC
Sequence of D(2) dopamine receptor (Rattus norvegicus) (P61169 whole entry): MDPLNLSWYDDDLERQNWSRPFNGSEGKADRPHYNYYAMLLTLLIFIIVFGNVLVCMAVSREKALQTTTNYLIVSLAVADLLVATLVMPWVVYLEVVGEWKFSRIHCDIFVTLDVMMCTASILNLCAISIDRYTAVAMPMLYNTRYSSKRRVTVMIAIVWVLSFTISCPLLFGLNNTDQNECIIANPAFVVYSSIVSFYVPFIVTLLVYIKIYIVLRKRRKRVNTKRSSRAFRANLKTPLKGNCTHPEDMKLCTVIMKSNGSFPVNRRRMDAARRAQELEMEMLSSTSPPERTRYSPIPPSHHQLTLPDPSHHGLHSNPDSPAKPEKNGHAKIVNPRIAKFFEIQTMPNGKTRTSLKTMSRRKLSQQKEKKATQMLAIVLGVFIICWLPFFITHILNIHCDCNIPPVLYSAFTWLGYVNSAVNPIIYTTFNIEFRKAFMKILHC
Sequence of Opioid receptor (Rattus norvegicus) (P33533 whole entry, looked up): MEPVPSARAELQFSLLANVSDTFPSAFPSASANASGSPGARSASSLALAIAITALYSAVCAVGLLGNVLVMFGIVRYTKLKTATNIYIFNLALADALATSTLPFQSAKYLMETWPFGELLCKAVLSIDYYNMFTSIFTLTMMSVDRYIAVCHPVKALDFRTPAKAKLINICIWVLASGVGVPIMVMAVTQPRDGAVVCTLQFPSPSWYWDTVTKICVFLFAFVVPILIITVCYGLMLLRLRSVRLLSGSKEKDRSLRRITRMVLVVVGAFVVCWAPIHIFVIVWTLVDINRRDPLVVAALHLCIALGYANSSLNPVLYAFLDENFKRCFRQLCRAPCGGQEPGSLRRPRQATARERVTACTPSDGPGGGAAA
Sequence of Opioid receptor (Rattus norvegicus) (P33535 whole entry, looked up): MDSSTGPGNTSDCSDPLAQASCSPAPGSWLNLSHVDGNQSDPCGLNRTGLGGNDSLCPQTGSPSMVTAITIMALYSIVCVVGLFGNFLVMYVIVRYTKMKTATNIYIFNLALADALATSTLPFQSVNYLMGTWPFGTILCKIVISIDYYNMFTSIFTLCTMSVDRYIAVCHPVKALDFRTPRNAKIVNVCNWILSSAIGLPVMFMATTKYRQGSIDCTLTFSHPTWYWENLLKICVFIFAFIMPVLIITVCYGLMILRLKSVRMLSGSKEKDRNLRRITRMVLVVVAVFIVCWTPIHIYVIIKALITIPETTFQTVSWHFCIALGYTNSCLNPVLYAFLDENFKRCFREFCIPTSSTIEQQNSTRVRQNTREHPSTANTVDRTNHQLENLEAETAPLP
Sequence of Opioid receptor (Rattus norvegicus) (P34975 whole entry, looked up): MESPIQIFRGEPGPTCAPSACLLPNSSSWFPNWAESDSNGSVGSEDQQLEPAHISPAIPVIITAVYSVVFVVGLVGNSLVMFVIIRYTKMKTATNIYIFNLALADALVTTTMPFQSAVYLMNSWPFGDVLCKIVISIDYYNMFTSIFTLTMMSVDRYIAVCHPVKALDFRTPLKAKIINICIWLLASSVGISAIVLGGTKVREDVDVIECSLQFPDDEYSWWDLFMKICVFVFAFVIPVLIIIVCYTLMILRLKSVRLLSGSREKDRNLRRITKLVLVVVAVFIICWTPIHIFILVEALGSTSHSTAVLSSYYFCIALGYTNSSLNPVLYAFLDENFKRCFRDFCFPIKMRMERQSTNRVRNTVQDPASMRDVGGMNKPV
Sequence of Serotonin 2 (5-HT2) receptor (Rattus norvegicus) (P08909 whole entry, looked up): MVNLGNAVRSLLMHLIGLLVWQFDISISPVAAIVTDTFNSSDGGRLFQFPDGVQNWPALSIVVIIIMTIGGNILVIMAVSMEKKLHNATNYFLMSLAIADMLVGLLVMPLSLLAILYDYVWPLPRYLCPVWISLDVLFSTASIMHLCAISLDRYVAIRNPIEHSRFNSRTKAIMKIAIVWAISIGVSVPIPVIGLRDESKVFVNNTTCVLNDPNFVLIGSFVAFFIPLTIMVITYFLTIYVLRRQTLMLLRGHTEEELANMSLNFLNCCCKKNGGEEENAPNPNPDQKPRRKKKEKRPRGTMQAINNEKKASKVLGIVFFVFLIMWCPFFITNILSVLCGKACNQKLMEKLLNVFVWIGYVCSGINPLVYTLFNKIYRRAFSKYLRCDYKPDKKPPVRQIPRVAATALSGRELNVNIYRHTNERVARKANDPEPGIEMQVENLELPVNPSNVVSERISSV
Sequence of Serotonin 2 (5-HT2) receptor (Rattus norvegicus) (P14842 whole entry, looked up): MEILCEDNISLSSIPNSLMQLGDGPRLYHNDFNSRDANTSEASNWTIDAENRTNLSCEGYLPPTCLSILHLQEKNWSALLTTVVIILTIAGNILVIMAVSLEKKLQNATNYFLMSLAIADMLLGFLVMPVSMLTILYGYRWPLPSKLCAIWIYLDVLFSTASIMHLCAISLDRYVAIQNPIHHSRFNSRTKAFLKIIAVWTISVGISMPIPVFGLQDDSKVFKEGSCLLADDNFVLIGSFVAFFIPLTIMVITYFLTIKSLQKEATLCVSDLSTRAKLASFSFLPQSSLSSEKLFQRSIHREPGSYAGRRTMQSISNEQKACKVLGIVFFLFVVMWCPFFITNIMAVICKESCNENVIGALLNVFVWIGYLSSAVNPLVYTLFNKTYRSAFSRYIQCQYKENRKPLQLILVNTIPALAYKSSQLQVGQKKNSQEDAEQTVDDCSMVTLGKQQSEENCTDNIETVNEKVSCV
Sequence of Serotonin 2 (5-HT2) receptor (Rattus norvegicus) (P30994 whole entry, looked up): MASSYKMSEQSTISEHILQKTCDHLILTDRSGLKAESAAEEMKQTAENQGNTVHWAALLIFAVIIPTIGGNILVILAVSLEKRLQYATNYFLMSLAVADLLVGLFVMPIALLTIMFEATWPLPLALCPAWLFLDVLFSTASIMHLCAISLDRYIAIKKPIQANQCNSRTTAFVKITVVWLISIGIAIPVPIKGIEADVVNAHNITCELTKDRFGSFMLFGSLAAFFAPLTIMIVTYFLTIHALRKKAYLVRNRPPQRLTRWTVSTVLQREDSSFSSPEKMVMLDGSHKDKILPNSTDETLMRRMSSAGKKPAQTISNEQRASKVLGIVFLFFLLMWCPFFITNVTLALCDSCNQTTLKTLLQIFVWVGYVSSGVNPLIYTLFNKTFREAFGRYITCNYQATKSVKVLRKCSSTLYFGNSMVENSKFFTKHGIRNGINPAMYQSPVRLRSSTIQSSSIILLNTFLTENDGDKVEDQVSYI

What does the source list for `Brc1ccccc1[C@H]1CC[C@H]2CCCCN21` (racemic)?
Response [1]: 7%; Response [2]: -18%; Response [3]: 6%; Response [4]: 0%; Response [5]: 2%; Response [6]: 17%; Response [7]: 1%; Response [8]: -3%

Which ED50 (Mus musculus [9]) does the source give for `CC(C)Cc1ccc(C(C)C(=O)O)cc1` (stereo unspecified) [IBUPROFEN] here?
The ED50 was 15.7 mg/kg.

And the ED50 (Mus musculus [10])?
The ED50 was “inactive”.

`COc1ccc2c3c1O[C@H]1[C@@H](O)C=C[C@H]4[C@@H](C2)N(C)CC[C@@]341.COc1ccc2c3c1O[C@H]1[C@@H](O)C=C[C@H]4[C@@H](C2)N(C)CC[C@@]341.O.O=P(O)(O)O.O=P(O)(O)O` [CODEINE PHOSPHATE] was tested. Which ED50 (Mus musculus [9]) did it give?
The ED50 was 11.1 mg/kg.

And the ED50 (Mus musculus [11])?
Its ED50 is 30 mg/kg.

`C1CCC([C@H]2CC[C@H]3CCCCN32)CC1.Cl` was tested. Which Response (Mus musculus [12]) did it give?
The Response was 50%.

What about the Response (Mus musculus [13]) of the same compound?
Its Response is 60%.

Which Ki [14] does the source give for `Brc1ccccc1[C@H]1CC[C@H]2CCCCN21.Cl` (stereo in doubt; (+)2a) here?
Its Ki is 1.2 µM.

What does the source list for `Brc1ccccc1[C@H]1CC[C@H]2CCCCN21` (stereo in doubt; (+)2a)?
Response [5]: 4%; Response [7]: 6%; Response [8]: -1%

For `Brc1ccc([C@H]2CC[C@H]3CCCCN32)cc1.Cl`, which ED50 (Mus musculus [9]) is on record?
Its ED50 is 18.8 mg/kg.

What about the ED50 (Mus musculus [10]) of the same compound?
Its ED50 is “inactive”.

With `Cl.c1ccc(COc2ccc([C@H]3CC[C@H]4CCCCN43)cc2)cc1` as the compound, how does the ED50 (Mus musculus [9]) read?
Its ED50 is 16.8 mg/kg.

What about the Response (Mus musculus [15]) of the same compound?
The Response was 50%.

How did the Response [5] turn out when `Brc1ccccc1[C@H]1CC[C@H]2CCCCN21` (stereo in doubt; (-)2a) was run?
Its Response is -2%.

What about the Response [7] of the same compound?
Its Response is 2%.

And the Response [8]?
The Response was -5%.

What does the source list for `c1ccc(C2CCC3CCCN32)cc1` (stereo unspecified)?
ED50 (Mus musculus [9]): 5.7 mg/kg; ED50 (Mus musculus [11]): > 25 mg/kg

With `Brc1ccccc1[C@H]1CC[C@H]2CCCCN21.Cl` (stereo in doubt; (-)2a) as the compound, how does the Ki [14] read?
The Ki was 2.84 µM.

With `Brc1cccc([C@H]2CC[C@H]3CCCCN32)c1.Cl` as the compound, how does the ED50 (Mus musculus [16]) read?
The ED50 was “inactive”.

What about the Response (Mus musculus [15]) of the same compound?
The Response was 60%.

With `Brc1ccccc1[C@H]1CC[C@H]2CCCCN21.Cl` (racemic) as the compound, how does the Ki [17] read?
The Ki was 1.12 µM.
